Values joined by “and” are separate entries in the source; they are usually repeats but may differ in a detail not shown here. Identical values can stand only once. Like-named read-outs stand apart in the source and are kept apart here.

The subject of series [1] is MCF-7. Description: MTT cytotoxicity assay against breast cancer cell line MCF-7. As to conditions: for Cytotoxic activity class against MCF-7: class by IC50. On the procedure:
All our newly synthesized hybrids were evaluated for their in vitro anticancer activity by the standard MTT assay against a breast cancer cell line (MCF-7). MTT is a calorimetric assay which relies on the ability of live tumor cells to reduce yellow MTT (3-(4,5-dimethylthiazol-2-yl)-2,5-diphenyltetrazolium bromide) to purple formazan by mitochondrial dehydrogenases, then added DMSO to dissolve the purple formazan and quantified by measuring absorbance at a certain wavelength. The dose response curve for compounds-treated vs. untreated cells is used to quantify the amount of formazan produced to report on the effectiveness of the compounds. […] Cell line: Mammary gland breast cancer (MCF-7). The cell line was obtained from ATCC via Holding company for biological products and vaccines (VACSERA), Cairo, Egypt. […] The cell line elucidated above were used to determine the inhibitory effects of compounds on cell growth using the MTT assay. […] After incubation, the cells were treated with different concentrations of compounds and incubated for an additional 24 h. After 24 h of drug treatment, 20 µL of MTT solution at 5 mg/mL was added and incubated for 4 h. […] The relative cell viability in percentage was calculated as (A570 of treated samples/A570 of the untreated sample) × 100 [48].
For orientation: Tetrazolium dyes change colour on reduction, which living cells bring about.

Series [2] addresses T1, Pin1 (Homo sapiens, UniProt Q13526). Nature of the series: Pin1 inhibition assay (SensoLyte Green Pin1 Assay Kit). Format: biochemical. On the set-up: purchased. As to conditions: for inhibition at 0.0001 µg/mL: conc 0.1 ng/ml; for inhibition at 0.0001 µg/mL / inhibition at 0.001 µg/mL / inhibition at 0.01 µg/mL / inhibition at 0.1 µg/mL: read-out: Pin1 %inh; for inhibition at 0.001 µg/mL: conc 1 ng/ml; for inhibition at 0.01 µg/mL: conc 10 ng/ml; for inhibition at 0.1 µg/mL: conc 100 ng/ml; for IC50: means ± SD of three experiments. Here is the method: The ability of the synthesized compounds to inhibit the Pin1 activity was evaluated using the SensoLyte® Green Pin1 Assay Kit. This assay is based on using a fluorogenic substrate which was pretreated to convert it into the cis isomer. Pin1 can change this substrate into the trans isomer that is easily cleaved to generate a fluorescent signal.

Series [3] in a line: In vitro cytotoxicity against normal Human lung fibroblast (WI38) cell line. Format: cell-based. The note with it: human, WI38 normal lung fibroblast cells.
Series [4] concerns the target T1, Pin1. Description: 2D 15N-1H HSQC NMR binding to 15N-labeled Pin1. On the set-up: Backbone and side-chain chemical shift assignments of full-length, apo, human Pin1; made in house. The note with it: Pin1 200 µM, compound 1 mM, 5% DMSO. The text has this:
Herein, ^15N-labeled Pin1 enzyme is used where we recorded HSQC spectra of the protein alone and in the presence of an excess amount of one of the newly synthesized compounds. The main challenge we faced in our research was the compound solubility in a balanced mixture of the protein aqueous buffer. Although our compound was freely soluble in DMSO, it is inapplicable to use pure DMSO to dissolve the protein because this will result in protein denaturation and probably aggregation. Therefore, only one compound was tested where we were able to dissolve it partially in a mixture of 95% buffer and 5% DMSO. In addition, as a control, the spectrum was recorded only in presence of DMSO and compared to the ones with the ligand. The proportion of Pin1 to the compounds was adjusted to be […]. […] Chemical shift perturbation and peak shifting are indicative of fast exchange between free and bound states which results in peak positions averaging. […] This peak disappearing indicated exchange on the μs–ms time scale (Figure 1). Furthermore, our NMR results have been verified using cell lines.
The expression and purification of ^15N-labeled Pin1 was performed according to the known protocol. The enzyme sample reached a final concentration of 200 µM in PBS buffer at pH = 6.5. Compound number 12 was dissolved in DMSO and added to the protein to achieve a final concentration of 1 mM in the NMR tube. […]

Series [5] deals with Pin1's PPIase activity. On the set-up: method as in PMID 19969456. As to conditions: read-out: IC50 of Pin1's PPIase activity inhibition; cited from earlier work.
[6] abbreviates: Homo sapiens, MCF7, 24 h, read-out: In Vitro Cytotoxicity IC50 MCF-7, MTT assay, 24 h treatment.
Setting [7] is: Homo sapiens, MCF7, read-out: IC50 against breast cancer cell line (MCF-7), MTT assay, section 2.2.

T1 sequence (Q13526 whole entry): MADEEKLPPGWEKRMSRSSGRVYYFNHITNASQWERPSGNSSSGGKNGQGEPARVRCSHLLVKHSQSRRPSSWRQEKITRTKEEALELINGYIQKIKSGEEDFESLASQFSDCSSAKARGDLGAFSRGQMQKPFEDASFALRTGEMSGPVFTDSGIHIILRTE

As to “2-(4-Bromophenyl)-7,8-dichlorobenzo[4,5]imidazo[1,2-a]pyridin-4-ol [Compound 14]”, in series [1], the IC50 (commonly the midpoint of a concentration-inhibition curve) came to 46 ± 2.9 µM.
As to `CC(O)c1nc2cc(Cl)c(Cl)cc2[nH]1` (stereo not shown) [Compound 2], in series [2], the inhibition at 0.0001 µg/mL turned out to be 39.2%, the inhibition at 0.001 µg/mL was 51.1%, the inhibition at 0.01 µg/mL was 67% and the inhibition at 0.1 µg/mL is 85.2%.
In the case of `CN(C)c1ccc(/C=C/C(=O)c2nc3cc(Cl)c(Cl)cc3[nH]2)cc1` [Compound 4, (E)-1-(5,6-Dichloro-1H-benzo[d]imidazol-2-yl)-3-(4-(dimethylamino)phenyl)prop-2-en-1-one], the melting point (commonly the temperature of the solid-liquid transition) fell in the range of 258 to 260 °C. In addition, the IC50 in series [1] (setting [6]) was 26.9 µM. In series [1], the “Cytotoxic activity class against MCF-7” value is “moderate (21–50 (moderate))”. Besides, the IC50 in series [1] (read-out: In Vitro Cytotoxicity IC50 MCF-7, MTT assay, 24 h treatment) turned out to be 26.8 ± 2.1 µM.
`CN(C)c1ccc(C2=NN=C(c3nc4cc(Cl)c(Cl)cc4[nH]3)C2)cc1` [Compound 5, 4-(5-(5,6-Dichloro-1H-benzo[d]imidazol-2-yl)-4H-pyrazol-3-yl)-N,N-dimethylaniline] showed a melting point of 216 °C. The IC50 in series [1] (setting [6]) is 11.7 ± 0.9 µM. In addition, in series [1] (setting [7]), the half-inhibitory concentration (IC50) is 11.8 µM. Further, the “Cytotoxic activity class against MCF-7” value in series [1] is listed as “strong (11–20 (strong))”. Also, in series [2], the IC50 worked out at 0.64 ± 0.03 nM. In addition, in series [3], half-maximal inhibition (IC50 at 24 h) was put at 67.9 ± 3.6 µM.
`CN(C)c1ccc(-c2cc(-c3nc4cc(Cl)c(Cl)cc4[nH]3)nc(N)c2C#N)cc1` [Compound 6, 2-Amino-6-(5,6-dichloro-1H-benzo[d]imidazol-2-yl)-4-(4-(dimethylamino)phenyl)nicotinonitrile] gave a melting point of 168 to 170 °C. In addition, in series [1] (setting [6]), the IC50 amounted to 15.4 ± 1.3 µM. The IC50 in series [1] (setting [7]) was 15.5 µM. Moreover, the “Cytotoxic activity class against MCF-7” value in series [1] is listed as “strong (11–20 (strong))”.
As to `CN(C)c1ccc(C2C=C(c3nc4cc(Cl)c(Cl)cc4[nH]3)OC(N)=C2C#N)cc1` (stereo not shown) [Compound 7, 2-Amino-6-(5,6-dichloro-1H-benzo[d]imidazol-2-yl)-4-(4-(dimethylamino)phenyl)-4H-pyran-3-carbonitrile], the melting point stood at 150 °C. Further, the IC50 in series [1] (setting [6]) is 21 ± 1.8 µM. Besides, the “Cytotoxic activity class against MCF-7” value in series [1] is “moderate (21–50 (moderate))”.
Compound `CC(=O)c1nc2cc(Cl)c(Cl)cc2n1CC(=O)c1ccc(Br)cc1` [Compound 9, 2-(2-Acetyl-5,6-dichloro-1H-benzo[d]imidazol-1-yl)-1-(4-bromophenyl)ethan-1-one] gave a melting point of 322 °C. Moreover, the IC50 in series [1] (setting [6]) came to 63.9 ± 3.4 µM. For the same compound, in series [2], the inhibition at 0.0001 µg/mL came out at 34.7%, the inhibition at 0.001 µg/mL was determined as 42.2%, the inhibition at 0.01 µg/mL worked out at 69.5% and the inhibition at 0.1 µg/mL is 87.5%.
On to `C=C1c2nc3cc(Cl)c(Cl)cc3n2C=C(c2ccc(Br)cc2)N1c1ccc(C)cc1` [Compound 10, 3-(4-Bromophenyl)-7,8-dichloro-1-methylene-2-(p-tolyl)-1,2-dihydrobenzo[4,5]imidazo[1,2-a]pyrazine], for which the melting point stood at 211 °C. Besides, the IC50 in series [1] (setting [6]) was 53 ± 3.1 µM. In addition, the “Cytotoxic activity class against MCF-7” value in series [1] is on record as “weak (51–100 (weak))”.
The corresponding values for `C=C1c2nc3cc(Cl)c(Cl)cc3n2C=C(c2ccc(Br)cc2)N1c1ccccc1C` [Compound 11, 3-(4-Bromophenyl)-7,8-dichloro-1-methylene-2-(o-tolyl)-1,2-dihydrobenzo[4,5]imidazo[1,2-a]pyrazine] are 106 °C, 38 ± 2.7 µM and “moderate (21–50 (moderate))”.
With `C=C1c2nc3cc(Cl)c(Cl)cc3n2C=C(c2ccc(Br)cc2)N1Cc1ccccc1` [Compound 12, 2-Benzyl-3-(4-bromophenyl)-7,8-dichloro-1-methylene-1,2-dihydrobenzo[4,5]imidazo[1,2-a]pyrazine], the melting point amounted to 85 °C. Also, in series [1] (setting [6]), the half-maximal inhibitory concentration (IC50) was found to be 31.3 ± 2.5 µM. The “Cytotoxic activity class against MCF-7” value in series [1] is recorded as “moderate (21–50 (moderate))”. Further, the IC50 in series [2] is 1.11 nM and 1.1 nM. This compound also had an IC50 at 24 h in series [3] of 45.7 ± 2.8 µM. In addition, in series [4], the “Binding to Pin1 by HSQC spectra overlay” value is “chemical shift perturbation and peak disappearance”.
For `Cc1nc(-c2ccc(Br)cc2)cn2c1nc1cc(Cl)c(Cl)cc12` [Compound 13, 3-(4-Bromophenyl)-7,8-dichloro-1-methylbenzo[4,5]imidazo[1,2-a]pyrazine], the melting point worked out at 290 °C. In addition, in series [1] (setting [6]), the IC50 amounted to 71.8 ± 3.8 µM. The concentration for half-maximal inhibition (IC50) in series [1] (setting [7]) amounted to 71.9 µM. Besides, the “Cytotoxic activity class against MCF-7” value in series [1] is listed as “weak (51–100 (weak))”.
Regarding `O=C(O)c1cc2ccccc2[nH]1` [Indole-2-carboxylic acid (I), Indole-2-carboxylic acid], the IC50 in series [5] is 16 µM.
Take Tannic acid [reference compound]: in series [2], the IC50 is 0.535 nM and 0.53 nM.

The values above are taken from article PMC9414874, “New Benzimidazoles Targeting Breast Cancer: Synthesis, Pin1 Inhibition, 2D NMR Binding, and Computational Studies” (Molecules, 2022).
